Assay results published in patent US8906904B2, “Alkoxy pyrazoles as soluble guanylate cyclase activators” (Boehringer Ingelheim International GmbH, priority 2012, dated 2014).

Legend:
[1] = human liver microsome (HLM) metabolic stability assay; type: in vitro ADME; details: human liver microsomes; % hepatic blood flow calculated from t1/2
How it was run: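 Compounds at 1 uM incubated with human liver microsomes plus NADPH at 37° C., sampled at 0, 5, 15, 30 and 60 min into cold acetonitrile and quantified by LC/MS/MS. t½ from the slope of ln % remaining vs time; CLint, CLh and % Qh derived from it (n=1).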

[2] = molecular target: T1, human soluble guanylate cyclase alpha 1 and beta 1 subunits (sGC) (Homo sapiens, UniProt Q02108+Q02153); test: sGC cellular activator assay (cGMP, HTRF); type: cell-based; details: CHO cells stably expressing human sGC alpha 1/beta 1, preincubated with 40 microM ODQ; cGMP readout; assay run with and without 50% human serum, Table 2 does not say which
T1 construct: expressed in transfected cells; host or cells: Chinese hamster ovary (CHO) cells, stably transfected
T1 sequence (Q02108 1-690): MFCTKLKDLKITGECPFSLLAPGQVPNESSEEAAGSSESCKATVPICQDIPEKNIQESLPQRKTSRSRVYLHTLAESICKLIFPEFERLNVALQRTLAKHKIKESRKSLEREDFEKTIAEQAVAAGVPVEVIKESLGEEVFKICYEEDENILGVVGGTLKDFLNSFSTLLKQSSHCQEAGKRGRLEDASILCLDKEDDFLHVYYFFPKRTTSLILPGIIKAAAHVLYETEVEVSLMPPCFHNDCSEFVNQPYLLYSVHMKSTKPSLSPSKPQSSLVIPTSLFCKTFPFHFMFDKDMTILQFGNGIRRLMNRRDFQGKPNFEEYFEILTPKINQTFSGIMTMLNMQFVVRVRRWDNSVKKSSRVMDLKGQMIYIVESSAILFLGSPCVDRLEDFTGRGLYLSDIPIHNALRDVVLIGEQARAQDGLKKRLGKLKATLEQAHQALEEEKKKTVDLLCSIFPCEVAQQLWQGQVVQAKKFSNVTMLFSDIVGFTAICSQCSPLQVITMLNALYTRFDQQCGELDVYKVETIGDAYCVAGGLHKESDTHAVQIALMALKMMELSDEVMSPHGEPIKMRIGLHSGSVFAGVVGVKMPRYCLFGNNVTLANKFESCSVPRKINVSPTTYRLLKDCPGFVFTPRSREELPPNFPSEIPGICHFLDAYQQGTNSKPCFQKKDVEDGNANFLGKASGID
T1 sequence (Q02153 1-619): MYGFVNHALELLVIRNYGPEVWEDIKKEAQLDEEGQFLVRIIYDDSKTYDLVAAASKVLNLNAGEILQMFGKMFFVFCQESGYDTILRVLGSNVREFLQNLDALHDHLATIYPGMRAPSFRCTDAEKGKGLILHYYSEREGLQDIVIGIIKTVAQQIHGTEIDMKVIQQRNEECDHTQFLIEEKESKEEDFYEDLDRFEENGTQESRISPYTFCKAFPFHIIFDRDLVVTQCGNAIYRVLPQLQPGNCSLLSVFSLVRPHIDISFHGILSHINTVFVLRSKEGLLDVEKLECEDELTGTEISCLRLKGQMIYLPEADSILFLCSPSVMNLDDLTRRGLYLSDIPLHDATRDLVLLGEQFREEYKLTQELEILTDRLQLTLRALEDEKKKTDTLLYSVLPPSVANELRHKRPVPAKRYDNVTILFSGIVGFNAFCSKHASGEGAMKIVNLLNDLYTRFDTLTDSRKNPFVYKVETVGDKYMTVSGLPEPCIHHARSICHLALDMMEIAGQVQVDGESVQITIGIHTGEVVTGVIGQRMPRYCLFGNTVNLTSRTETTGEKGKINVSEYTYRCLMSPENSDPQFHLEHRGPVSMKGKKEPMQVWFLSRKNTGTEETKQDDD
How it was run: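 Heme-oxidized conditions: ODQ (40 microM, 1 h) pretreatment of CHO cells stably expressing human α1/β1 sGC, in buffer containing 0.1% BSA and IBMX.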

SMILES	HLM (% Qh) [1] [% Qh]	EC50 [2] [nM]
CCOc1c(C(=O)O)cnn1-c1cccc(-c2cccc(Cl)c2OCc2ccc3c(c2)CCN(C2CCC(F)(F)CC2)C3)n1 [Compound 57]	<24	24
Cc1cccc(-c2cccc(-n3ncc(C(=O)O)c3OC(C)C)n2)c1OCc1ccc2c(c1)CCN(C(C)C)C2 [Compound 37]	<24	120
COc1c(C(=O)O)cnn1-c1cccc(-c2cccc(C)c2OCc2ccc3c(c2)CCN(C2CCOC(C)(C)C2)C3)n1 (stereo not drawn) [Compound 61]	<24	59
CCOc1c(C(=O)O)cnn1-c1cccc(-c2cccc(C)c2OCc2ccc3c(c2)CCN(C2CC(C)OC(C)C2)C3)n1 (stereo not drawn) [Compound 65]	<24	56
CCOc1c(C(=O)O)cnn1-c1cccc(-c2cccc(C)c2OCc2ccc3c(c2)CCN(C2CCOCC2F)C3)n1 (stereo not drawn) [Compound 94]	<24	45
COc1c(C(=O)O)cnn1-c1cccc(-c2cccc(C)c2OCc2ccc3c(c2)C(C)(C)CN(C2CCOCC2)C3)n1 [Compound 89]	76	150
CCOc1c(C(=O)O)cnn1-c1cccc(-c2cccc(C)c2OCc2ccc3c(c2)CCN(CC2CCOC(C)(C)C2)C3)n1 (stereo not drawn) [Compound 80]	<24	45
CCOc1c(C(=O)O)cnn1-c1cccc(-c2cccc(C)c2OCc2ccc3c(c2)CCN(CC2(C)COC2)C3)n1 [Compound 34]	<24	65
Cc1cccc(-c2cccc(-n3ncc(C(=O)O)c3OC(C)C)n2)c1OCc1ccc2c(c1)CCN(C1CCC(F)(F)CC1)C2 [Compound 2]	<24	11
CCOc1c(C(=O)O)cnn1-c1cccc(-c2cccc(Cl)c2OCc2ccc3c(c2)CCN(CCOC)C3)n1 [Compound 58]	<24	82
Cc1cccc(-c2cccc(-n3ncc(C(=O)O)c3OC(C)C)n2)c1OCc1ccc2c(c1)CCN(C1CCOC1)C2 (stereo not drawn) [Compound 41]	<24	27
Cc1cccc(-c2cccc(-n3ncc(C(=O)O)c3OC(C)C)n2)c1OCc1ccc2c(c1C)CCN(C(C)C)C2 [Compound 43]	26	130
CCOc1c(C(=O)O)cnn1-c1cccc(-c2cccc(C)c2OCc2ccc3c(c2)CCN(C2CCOC(C)(C)C2)C3)n1 (stereo not drawn) [Compound 66]	<24	110
CCOc1c(C(=O)O)cnn1-c1cccc(-c2cccc(C)c2OCc2ccc3c(c2)CCN(C(C)CF)C3)n1 (stereo not drawn) [Compound 49, 5-ethoxy-1-(6-{2-[2-(2-fluoro-1-methyl-ethyl)-1,2,3,4-tetrahydro-isoquinolin-6-ylmethoxy]-3-methyl-phenyl}-pyridin-2-yl)-1H-pyrazole-4-carboxylic acid]	48	54
COc1c(C(=O)O)cnn1-c1cccc(-c2cccc(C)c2OCc2ccc3c(c2C)CCN(CC(C)(C)C)C3)n1 [Compound 30]	<24	10
COc1c(C(=O)O)cnn1-c1cccc(-c2cccc(C(F)(F)F)c2OCc2ccc3c(c2)CN(C2CCOCC2)C3)n1 [Compound 93]	<24	37
COc1c(C(=O)O)cnn1-c1cccc(-c2cccc(C(F)(F)F)c2OCc2ccc3c(c2C)CCN(C2COC2)C3)n1 [Compound 88]	<24	28
COc1c(C(=O)O)cnn1-c1cccc(-c2cccc(C)c2OCc2ccc3c(c2)CCN(C2CCC(F)(F)CC2)C3)n1 [Compound 5]	<24	9
COc1c(C(=O)O)cnn1-c1cccc(-c2cccc(C)c2OCc2ccc3c(c2)CCN(CC2CC2(F)F)C3)n1 (stereo not drawn) [Compound 72, 1-(6-{2-[2-(2,2-difluoro-cyclopropylmethyl)-1,2,3,4-tetrahydro-isoquinolin-6-ylmethoxy]-3-methyl-phenyl}-pyridin-2-yl)-5-methoxy-1H-pyrazole-4-carboxylic acid]	47	17
Cc1cccc(-c2cccc(-n3ncc(C(=O)O)c3OC(C)C)n2)c1OCc1ccc2c(c1)CCN(CC1(C)COC1)C2 [Compound 40]	<24	62
CCOc1c(C(=O)O)cnn1-c1cccc(-c2cccc(C)c2OCc2ccc3c(c2)CCN(C2CCOC(CC)C2)C3)n1 (stereo not drawn) [Compound 79]	<24	33
CCOc1c(C(=O)O)cnn1-c1cccc(-c2cccc(C)c2OCc2ccc3c(c2)CCN(C2CCOC2C)C3)n1 (stereo not drawn) [Compound 71]	<24	67
CCOc1c(C(=O)O)cnn1-c1cccc(-c2cccc(Cl)c2OCc2ccc3c(c2)CCN(C2CCOCC2)C3)n1 [Compound 54]	<24	110
COc1c(C(=O)O)cnn1-c1cccc(-c2cccc(C)c2OCc2ccc3c(c2)CCN(CCS(C)(=O)=O)C3)n1 [Compound 74]	<24	73

Second part, the compound after the results:

HLM (% Qh) [1] [% Qh]	EC50 [2] [nM]	SMILES
<24	38	CCOc1c(C(=O)O)cnn1-c1cccc(-c2cccc(C)c2OCc2ccc3c(c2)CCN(CC2CCOC2)C3)n1 (stereo not drawn) [Compound 68]
<24	82	COc1c(C(=O)O)cnn1-c1cccc(-c2cccc(F)c2OCc2ccc3c(c2)CCN(C2CCOCC2)C3)n1 [Compound 63]
<24	69	COc1c(C(=O)O)cnn1-c1cccc(-c2cccc(C)c2OCc2ccc3c(c2)CCN([C@H]2CC[C@H](OC)CC2)C3)n1 [Compound 90]
<24	75	COc1c(C(=O)O)cnn1-c1cccc(-c2cccc(C)c2OCc2ccc3c(c2)CCN([C@H]2CC[C@@H](OC)CC2)C3)n1 [Compound 91]
<24	26	Cc1cccc(-c2cccc(-n3ncc(C(=O)O)c3OC(C)C)n2)c1OCc1ccc2c(c1C)CCN(C1COC1)C2 [Compound 45]
<24	48	CCOc1c(C(=O)O)cnn1-c1cccc(-c2cccc(C)c2OCc2ccc3c(c2)CCN(C2CCOC(C)C2)C3)n1 (stereo not drawn) [Compound 78]
<24	320	CCOc1c(C(=O)O)cnn1-c1cccc(-c2cccc(C)c2OCc2ccc3c(c2)CCN(C2CC(C)(C)OC(C)(C)C2)C3)n1 [Compound 67]
<24	29	COc1c(C(=O)O)cnn1-c1cccc(-c2cccc(C(F)(F)F)c2OCc2ccc3c(c2)CCN(C2CCOCC2)C3)n1 [Compound 83]
<24	180	CCOc1c(C(=O)O)cnn1-c1cccc(-c2cccc(C)c2OCc2ccc3c(c2)CCN(C(C)CS(C)(=O)=O)C3)n1 (stereo not drawn) [Compound 70]
<24	41	COc1c(C(=O)O)cnn1-c1cccc(-c2cccc(C)c2OCc2ccc3c(c2)CCN(C2CCOCC2C)C3)n1 (stereo not drawn) [Compound 86]
<24	39	Cc1cccc(-c2cccc(-n3ncc(C(=O)O)c3OC(C)C)n2)c1OCc1ccc2c(c1)CCN(C1CCOCC1)C2 [Compound 1, 5-isopropoxy-1-(6-{3-methyl-2-[2-(tetrahydro-pyran-4-yl)-1,2,3,4-tetrahydro-isoquinolin-6-ylmethoxy]-phenyl}-pyridin-2-yl)-1H-pyrazole-4-carboxylic acid]
<24	72	CCOc1c(C(=O)O)cnn1-c1cccc(-c2cccc(Cl)c2OCc2ccc3c(c2)CCN(C2COC2)C3)n1 [Compound 51]
